Values of other authors, collected in patent publication US4127527A, “Novel pentadecapeptides, intermediates therefor, and compositions and methods employing said pentadecapeptides” (priority 1977, dated 1978).

Assays:
[1] = system: rat; conditions: injected directly into the brain of the rat; Belluzzi et al., Nature 260, 625 (1976)
[2] = system: brain opiate receptor sites; conditions: natural peptide; Bradbury et al., Nature 260, 793 (1976)

## H-Tyr-Gly-Gly-Phe-Met-OH [methionine enkephalin]
[1]
  analgesic activity: only weak analgesic agent of short duration
[2]
  binding to partially purified brain opiate receptor sites: binds stereo-specifically
